Results from US20200216439A1, “HETERO-1,5,6,7-TETRAHYDRO-4H-INDOL-4-ONES” (BAYER PHARMA AKTIENGESELLSCHAFT, priority 2015, published 2020).
Where two headings read alike, the source gives them in different places.

Target: T1, catalytic domain of human Bub1 (amino acids 704-1085) (Homo sapiens, UniProt O43683)
T1 construct: catalytic domain of human Bub1 (amino acids 704-1085); His6 (N); made in house; host or cells: Hi5 insect cells
Assay: Bub1 kinase assay (TR-FRET)
Format: biochemical
Outline: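 Human Bub1 catalytic domain (704-1085, His6-tagged, Hi5-expressed, ~200 ng/mL) preincubated with compound 15 min at 22 °C, then reacted 60 min at 22 °C with 10 μM ATP and 1 μM biotinylated peptide substrate, pH 7.5. EDTA stop; TR-FRET 665/620 ratio; IC50 from 4-parameter fit, 11 concentrations in duplicate.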

[1] = TR-FRET, ATP 10 μM, peptide substrate 1 μM, 60 min at 22° C., average or median if tested more than once, read-out: Inhibition of Bub1 kinase IC50

T1 sequence (O43683 704-1085): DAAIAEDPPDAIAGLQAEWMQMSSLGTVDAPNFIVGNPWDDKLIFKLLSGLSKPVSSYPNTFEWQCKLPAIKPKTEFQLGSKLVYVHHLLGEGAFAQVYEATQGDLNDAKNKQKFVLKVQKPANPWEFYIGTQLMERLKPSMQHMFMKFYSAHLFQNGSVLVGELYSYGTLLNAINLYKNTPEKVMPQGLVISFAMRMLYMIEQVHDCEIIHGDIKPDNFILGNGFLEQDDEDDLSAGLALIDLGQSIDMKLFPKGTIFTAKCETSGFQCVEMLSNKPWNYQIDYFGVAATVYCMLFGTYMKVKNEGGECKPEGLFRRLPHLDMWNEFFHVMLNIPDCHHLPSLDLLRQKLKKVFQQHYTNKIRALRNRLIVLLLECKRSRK

Compound | IC50 [1] [nM] | IC50 [nM]
CC(C)(C)OC(=O)N1CC(=O)c2c([nH]c(-c3ccncc3OCC(F)F)c2Nc2ccccc2)C1 [Example 220, tert-Butyl 3-anilino-2-[3-(2,2-difluoroethoxy)pyridin-4-yl]-4-oxo-1,4,5,7-tetrahydro-6H-pyrrolo[2,3-c]pyridine-6-carboxylate] | 18 | –
CN1CCN(C(=O)N2CC(=O)c3c([nH]c(-c4ccncc4OCC4CC4)c3Nc3ccccc3)C2)CC1 [Example 252, 2-[3-(Cyclopropylmethoxy)pyridin-4-yl]-6-[(4-methylpiperazin-1-yl)carbonyl]-3-(phenylamino)-1,5,6,7-tetrahydro-4H-pyrrolo[2,3-c]pyridin-4-one] | 48 | –
CC(=O)Nc1cc(-c2[nH]c3c(c2Nc2ccccc2)C(=O)CN(C(=O)CC(C)(C)C)C3)ccn1 [Example 174, N-{4-[3-Anilino-6-(3,3-dimethylbutanoyl)-4-oxo-4,5,6,7-tetrahydro-1H-pyrrolo[2,3-c]pyridin-2-yl]pyridin-2-yl}acetamide] | 8 | –
COc1ccc(C(=O)Nc2cc(-c3c(Nc4ccccc4)c4c(n3C)CN(S(=O)(=O)N(C)C)CC4=O)ccn2)cc1F [Example 290, N-4-[6-(Dimethylsulfamoyl)-1-methyl-4-oxo-3-(phenylamino)-4,5,6,7-tetrahydro-1H-pyrrolo[2,3-c]pyridin-2-yl]pyridin-2-yl-3-fluoro-4-methoxybenzamide] | 73 | –
CC(C)(C)OC(=O)N1CC(=O)c2c([nH]c(-c3ccncc3OCC3CC3)c2Nc2ccccc2)C1 [Example 223, tert-Butyl 3-anilino-2-[3-(cyclopropylmethoxy)pyridin-4-yl]-4-oxo-1,4,5,7-tetrahydro-6H-pyrrolo[2,3-c]pyridine-6-carboxylate] | 14 | –
COc1cc(C(=O)Nc2cc(-c3[nH]c4c(c3Nc3ccccc3)C(=O)CN(C(=O)N3CCOCC3)C4)ccn2)ccc1F [Example 260, 4-Fluoro-3-methoxy-N-4-[6-(morpholin-4-ylcarbonyl)-4-oxo-3(phenylamino)-4,5,6,7-tetrahydro-1H-pyrrolo[2,3-c]pyridin-2-yl]pyridin-2-ylbenzamide] | – | 8
O=C(Nc1cc(-c2[nH]c3c(c2Nc2ccccc2)C(=O)COC3)ccn1)c1ccc(F)c(F)c1 [Example 154, N-[4-(3-Anilino-4-oxo-1,4,5,7-tetrahydropyrano[3,4-b]pyrrol-2-yl)pyridin-2-yl]-3,4-difluorobenzamide] | 19 | –
CC(C)(F)C(=O)Nc1cc(-c2[nH]c3c(c2Nc2ccccc2)C(=O)CNC3)ccn1 [Example 130, N-[4-(3-Anilino-4-oxo-4,5,6,7-tetrahydro-1H-pyrrolo[2,3-c]pyridin-2-yl)pyridin-2-yl]-2-fluoro-2-methylpropanamide] | 662 | –
COCCOc1cnccc1-c1[nH]c2c(c1Nc1ccccc1)C(=O)CN(C(C)=O)C2 [Example 230, 6-Acetyl-2-[3-(2-methoxyethoxy)pyridin-4-yl]-3-(phenylamino)-1,5,6,7-tetrahydro-4H-pyrrolo[2,3-c]pyridin-4-one] | 16 | –
O=C1COCc2[nH]c(-c3ccncc3Br)c(Nc3ccccc3)c21 [Example 41, 2-(3-Bromopyridin-4-yl)-3-(phenylamino)-1,7-dihydropyrano[3,4-b]pyrrol-4(5H)-one] | 233 | –
COc1cc(C(=O)Nc2cc(-c3c(Nc4ccccc4)c4c(n3C)CN(C(=O)OC(C)(C)C)CC4=O)ccn2)ccc1F [Example 256, tert-Butyl 2-2-[(4-fluoro-3-methoxybenzoyl)amino]pyridin-4-yl-1-methyl-4-oxo-3-(phenylamino)-1,4,5,7-tetrahydro-6H-pyrrolo[2,3-c]pyridine-6-carboxylate] | 936 | –
CNS(=O)(=O)N1CC(=O)c2c([nH]c(-c3ccnc(NC(C)=O)c3)c2Nc2ccc(C)cc2)C1 [Example 322] | 41 | –
CC(=O)Nc1cc(-c2[nH]c3c(c2Nc2ccccc2)C(=O)CN(C(=O)SC(C)(C)C)C3)ccn1 [Example 301, S-tert-butyl 2-(2-acetamidopyridin-4-yl)-3-anilino-4-oxo-1,4,5,7-tetrahydro-6H-pyrrolo[2,3-c]pyridine-6-carbothioate] | 33 | –
CC(C)(C)SC(=O)N1CC(=O)c2c([nH]c(-c3ccnc(NC(=O)C4(F)CC4)c3)c2Nc2ccccc2)C1 [Example 307, S-tert-Butyl 3-anilino-2-{2-([(1-fluorocyclopropyl)carbonyl]amino}pyridin-4-yl)-4-oxo-1,4,5,7-tetrahydro-6H-pyrrolo[2,3-c]pyridine-6-carbothioate] | 182 | –
Nc1cc(-c2[nH]c3c(c2Nc2ccccc2)C(=O)COC3)ccn1 [Example 22, 2-(2-Aminopyridin-4-yl)-3-(phenylamino)-1,7-dihydropyrano[3,4-b]pyrrol-4(5H)-one] | 503 | –
CC(C)(C)SC(=O)N1CC(=O)c2c([nH]c(-c3ccnc(NC(=O)[C@@H]4C[C@@H]4F)c3)c2Nc2ccccc2)C1 [Example 308, S-tert-Butyl 3-anilino-2-[2-({[(1S,2S)-2-fluorocyclopropyl]carbonyl}amino)pyridin-4-yl]-4-oxo-1,4,5,7-tetrahydro-6H-pyrrolo[2,3-c]pyridine-6-carbothioate] | 31 | –
O=C1CNCc2[nH]c(-c3ccncc3Cl)c(Nc3ccccc3)c21 [Example 2, 2-(3-Chloropyridin-4-yl)-3-(phenylamino)-1,5,6,7-tetrahydro-4H-pyrrolo[2,3-c]pyridin-4-one] | 236 | –
COc1ccc(C(=O)Nc2cc(-c3[nH]c4c(c3Nc3ccccc3)C(=O)CN(C(C)=O)C4)ccn2)cc1F [Example 285, N-4-[6-Acetyl-4-oxo-3-(phenylamino)-4,5,6,7-tetrahydro-1H-pyrrolo[2,3-c]pyridin-2-yl]pyridin-2-yl-3-fluoro-4-methoxybenzamide] | 6 | –
CC(C)(C)OC(=O)N1CC(=O)c2c([nH]c(-c3ccnc(N)c3)c2Nc2ccccc2)C1 [Example 13, tert-Butyl 2-(2-aminopyridin-4-yl)-4-oxo-3-(phenylamino)-1,4,5,7-tetrahydro-6H-pyrrolo[2,3-c]pyridine-6-carboxylate] | 40 | –

More lines, in order of falling IC50 [1], values ahead:

IC50 [1] [nM] | Compound | IC50 [nM]
6 | CC(C)S(=O)(=O)N1CC(=O)c2c([nH]c(-c3ccncc3)c2Nc2ccccc2)C1 [Example 67, 3-(phenylamino)-6-(propan-2-ylsulfonyl)-2-(pyridin-4-yl)-1,5,6,7-tetrahydro-4H-pyrrolo[2,3-c]pyridin-4-one] | –
6 | O=C1CN(S(=O)(=O)c2cccnc2)Cc2[nH]c(-c3ccncc3)c(Nc3ccccc3)c21 [Example 75, 3-(phenylamino)-2-(pyridin-4-yl)-6-(pyridin-3-ylsulfonyl)-1,5,6,7-tetrahydro-4H-pyrrolo[2,3-c]pyridin-4-one] | –
6 | COC(=O)N1CC(=O)c2c([nH]c(-c3ccnc(NC(=O)[C@@H]4C[C@H]4F)c3)c2Nc2ccccc2)C1 [Example 143, Methyl 3-anilino-2-[2-({[(1S,2R)-2-fluorocyclopropyl]carbonyl}amino)pyridin-4-yl]-4-oxo-1,4,5,7-tetrahydro-6H-pyrrolo[2,3-c]pyridine-6-carboxylate] | –
5 | CC(=O)N1CC(=O)c2c([nH]c(-c3ccnc(NC(=O)c4ccc(F)cc4)c3)c2Nc2ccccc2)C1 [Example 271, N-4-[6-Acetyl-4-oxo-3-(phenylamino)-4,5,6,7-tetrahydro-1H-pyrrolo[2,3-c]pyridin-2-yl]pyridin-2-yl-4-fluorobenzamide] | –
5 | COCCOc1cnccc1-c1[nH]c2c(c1Nc1ccccc1)C(=O)CN(C(=O)OC)C2 [Example 248, Methyl 2-[3-(2-methoxyethoxy)pyridin-4-yl]-4-oxo-3-(phenylamino)-1,4,5,7-tetrahydro-6H-pyrrolo[2,3-c]pyridine-6-carboxylate] | –
5 | CC(=O)Nc1cc(-c2[nH]c3c(c2Nc2ccccc2)C(=O)CN(C(=O)C(C)(C)C)C3)ccn1 [Example 181, N-{4-[3-Anilino-6-(2,2-dimethylpropanoyl)-4-oxo-4,5,6,7-tetrahydro-1H-pyrrolo[2,3-c]pyridin-2-yl]pyridin-2-yl}acetamide] | –
4 | CNC(=O)N1CC(=O)c2c([nH]c(-c3ccnc(NC(=O)[C@@H]4C[C@@H]4F)c3)c2Nc2ccccc2)C1 [Example 206, 2-[2-([(1S,2S)-2-Fluorocyclopropyl]carbonylamino)pyridin-4-yl]-N-methyl-4-oxo-3-(phenylamino)-1,4,5,7-tetrahydro-6H-pyrrolo[2,3-c]pyridine-6-carboxamide] | –
4 | CN(C)C(=O)N1CC(=O)c2c([nH]c(-c3ccncc3)c2Nc2ccccc2)C1 [Example 82] | –
4 | CNS(=O)(=O)N1CC(=O)c2c([nH]c(-c3ccnc(NC(C)=O)c3)c2Nc2ccc(F)cc2)C1 [Example 315, N-(4-(3-[(4-Fluorophenyl)amino]-6-(methylsulfamoyl)-4-oxo-4,5,6,7-tetrahydro-1H-pyrrolo[2,3-c]pyridin-2-yl)pyridin-2-yl)acetamide] | –
4 | CC(=O)N1CC(=O)c2c([nH]c(-c3ccncc3)c2Nc2ccccc2)C1 [Example 7, 6-Acetyl-3-(phenylamino)-2-(pyridin-4-yl)-1,5,6,7-tetrahydro-4H-pyrrolo[2,3-c]pyridin-4-one] | –
3 | CCC(=O)N1CC(=O)c2c([nH]c(-c3ccnc(NC(=O)[C@@H]4C[C@@H]4F)c3)c2Nc2ccccc2)C1 [Example 198, (1S,2S)-2-Fluoro-N-4-[4-oxo-3-(phenylamino)-6-propanoyl-4,5,6,7-tetrahydro-1H-pyrrolo[2,3-c]pyridin-2-yl]pyridin-2-ylcyclopropanecarboxamide] | –
3 | O=C1CN(C(=O)N2CCOCC2)Cc2[nH]c(-c3ccncc3)c(Nc3ccccc3)c21 [Example 94, 6-(Morpholin-4-ylcarbonyl)-3-(phenylamino)-2-(pyridin-4-yl)-1,5,6,7-tetrahydro-4H-pyrrolo[2,3-c]pyridin-4-one] | –
